Data taken from patent US20230382925A1, “MODULATORS OF CYSTIC FIBROSIS TRANSMEMBRANE CONDUCTANCE REGULATOR” (VERTEX PHARMACEUTICALS INCORPORATED, priority 2020, published 2023).
pEC50: −log10 of the molar value. Each block holds one compound with its values, some of them ahead of it.

Target: T1, CFTR (Homo sapiens, UniProt P13569, DEL508-508)
T1 construct: human bronchial epithelial (HBE) cells derived from CF subjects heterozygous for F508del; endogenous in cells; host or cells: primary human bronchial epithelial cells from CF subjects (F508del/MF-HBE)
Assay: HBE assay: Ussing chamber assay of CFTR-mediated short-circuit currents (F508del/MF-HBE, with 1 μM Ivacaftor)
Assay type: cell-based
Settings: F508del/MF-HBE cells, 18-24 hours, 20% human serum; for pEC50: range of concentrations with 1 μM Ivacaftor; for HBE Max Activity: with 1 μM Ivacaftor, compared to known Vertex corrector with 18 μM Tezacaftor and 1 μM Ivacaftor; for HBE Activity at 10 μM: single fixed concentration of 10 μM with 1 μM Ivacaftor
Procedure: 1. Ussing Chamber Assay of CFTR-mediated short-circuit currents
Ussing chamber experiments were performed using human bronchial epithelial (HBE) cells derived from CF subjects heterozygous for F508del and a minimal function CFTR mutation (F508del/MF-HBE) and cultured as previously described (Neuberger T, Burton B, Clark H, Van Goor F Methods Mol Biol 2011:741:39-54). After four days the apical media was removed, and the cells were grown at an air liquid interface for >14 days prior to use.
To isolate the CFTR-mediated short-circuit (ISC) current, F508del/MF-HBE grown on Costar® Snapwell™ cell culture inserts were mounted in an Ussing chamber and the transepithelial ISC was measured under voltage-clamp recording conditions (Vhold=0 mV) at 37° C. The basolateral solution contained (in mM) 145 NaCl, 0.83 K2HPO4, 3.3 KH2PO4, 1.2 MgCl2, 1.2 CaCl2), 10 Glucose, 10 HEPES (pH adjusted to 7.4 with NaOH) and the apical solution contained (in mM) 145 NaGluconate, 1.2 MgCl2, 1.2 CaCl2), 10 glucose, 10 HEPES (pH adjusted to 7.4 with NaOH) and 30 μM amiloride to block the epithelial sodium channel. Forskolin (20 μM) was added to the apical surface to activate CFTR, followed by apical addition of a CFTR inhibitor cocktail consisting of BPO, GlyH-101, and CFTR inhibitor 172 (each at 20 μM final assay concentration) to specifically isolate CFTR currents. The CFTR-mediated ISC (μA/cm^2) for each condition was determined from the peak forskolin response to the steady-state current following inhibition.
2. Identification of Corrector Compounds
The activity of the CFTR corrector compounds on the CFTR-mediated ISC was determined in Ussing chamber studies as described above. The F508del/MF-HBE cell cultures were either incubated with the corrector compounds at a range of concentrations in combination with 1 μM Ivacaftor or were incubated with the corrector compounds at a single fixed concentration of 10 μM in combination with 1 μM Ivacaftor for 18-24 hours at 37° C. and in the presence of 20% human serum. The concentration of corrector compounds with 1 μM Ivacaftor during the 18-24 hours incubations was kept constant throughout the Ussing chamber measurement of the CFTR-mediated ISC to ensure compounds were present throughout the entire experiment.

T1 sequence (P13569 with tags, fused parts or gaps DEL508-508): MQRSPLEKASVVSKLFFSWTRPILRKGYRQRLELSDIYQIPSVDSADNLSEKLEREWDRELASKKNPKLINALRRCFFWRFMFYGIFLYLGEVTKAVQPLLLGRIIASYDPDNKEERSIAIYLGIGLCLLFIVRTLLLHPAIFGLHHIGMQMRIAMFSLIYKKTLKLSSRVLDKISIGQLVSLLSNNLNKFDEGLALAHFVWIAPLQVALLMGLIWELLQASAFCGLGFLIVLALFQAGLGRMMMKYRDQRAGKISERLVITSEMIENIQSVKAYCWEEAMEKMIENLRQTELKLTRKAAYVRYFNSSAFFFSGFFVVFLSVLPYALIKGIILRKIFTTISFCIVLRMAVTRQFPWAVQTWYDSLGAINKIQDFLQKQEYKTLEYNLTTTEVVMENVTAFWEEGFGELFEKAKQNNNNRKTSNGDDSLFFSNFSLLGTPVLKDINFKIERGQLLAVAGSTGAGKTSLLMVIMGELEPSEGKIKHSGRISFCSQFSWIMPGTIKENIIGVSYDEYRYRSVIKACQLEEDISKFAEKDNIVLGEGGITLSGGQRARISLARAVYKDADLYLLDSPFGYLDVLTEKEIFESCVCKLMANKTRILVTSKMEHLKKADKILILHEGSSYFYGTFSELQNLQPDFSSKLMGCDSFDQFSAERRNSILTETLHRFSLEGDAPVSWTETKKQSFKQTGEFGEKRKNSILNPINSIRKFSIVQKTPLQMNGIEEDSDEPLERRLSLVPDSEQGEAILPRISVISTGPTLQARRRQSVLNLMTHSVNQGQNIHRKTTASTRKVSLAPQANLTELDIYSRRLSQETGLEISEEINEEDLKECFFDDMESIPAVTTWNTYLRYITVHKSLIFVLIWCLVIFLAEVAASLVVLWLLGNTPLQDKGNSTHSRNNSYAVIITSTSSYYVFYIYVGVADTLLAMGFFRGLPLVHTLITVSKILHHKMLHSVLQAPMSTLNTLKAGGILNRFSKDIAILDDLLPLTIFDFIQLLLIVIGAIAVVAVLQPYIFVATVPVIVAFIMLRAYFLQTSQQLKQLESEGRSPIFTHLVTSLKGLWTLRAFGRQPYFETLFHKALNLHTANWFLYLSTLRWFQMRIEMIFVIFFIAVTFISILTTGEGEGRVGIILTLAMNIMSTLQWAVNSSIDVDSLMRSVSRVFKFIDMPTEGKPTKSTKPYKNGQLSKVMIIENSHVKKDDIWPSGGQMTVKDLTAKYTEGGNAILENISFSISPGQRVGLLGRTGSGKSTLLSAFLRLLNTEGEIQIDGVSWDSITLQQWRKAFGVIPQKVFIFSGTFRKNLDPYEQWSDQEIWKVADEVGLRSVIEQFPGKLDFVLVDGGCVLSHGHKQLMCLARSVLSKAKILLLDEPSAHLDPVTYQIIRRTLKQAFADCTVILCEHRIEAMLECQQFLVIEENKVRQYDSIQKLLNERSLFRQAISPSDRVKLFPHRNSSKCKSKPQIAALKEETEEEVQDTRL

SMILES: Cc1cccc(CO)c1-c1cc2nc(n1)NS(=O)(=O)c1cccc(c1)C(=O)N([C@H]1CC3(C[C@H](NC(=O)OC(C)C)C3)C1)[C@H](CC(C)(C)C)CO2 (stereo in doubt) [Compound 403]
HBE Activity at 10 μM: ++ (++ is 30-60%)

SMILES: Cc1cccc(C)c1-c1cc2nc(n1)NS(=O)(=O)c1cccc(c1)C(=O)N([C@H]1C[C@@]3(C[C@H](NCC(F)(F)F)C3)C1)[C@H](CC1(C(F)(F)F)CC1)CO2 (stereo in doubt) [Compound 220]
pEC50: > 6.00
HBE Max Activity: +++ (+++ is >60%)

SMILES: Cc1cccc(C)c1-c1cc2nc(n1)NS(=O)(=O)c1cccc(c1)C(=O)N(C1CC3(CC(N4CCOCC4)C3)C1)[C@H](CC(C)(C)C)CO2 (single isomer, unassigned) [Compound 432]
pEC50: > 6.00
HBE Max Activity: +++ (+++ is >60%)

SMILES: Cc1cccc(C)c1-c1cc2nc(n1)NS(=O)(=O)c1cccc(c1)C(=O)N([C@H]1CC3(C[C@H](N(C)CCC(F)(F)F)C3)C1)[C@H](CC1(C(F)(F)F)CC1)CO2 (stereo in doubt) [Compound 219]
HBE Activity at 10 μM: +++ (+++ is >60%)

SMILES: Cc1cccc(CO)c1-c1cc2nc(n1)NS(=O)(=O)c1cccc(c1)C(=O)N([C@H]1CC3(C[C@H](NC(=O)OC(C)C)C3)C1)[C@H](CC(C)(C)C)CO2 (stereo in doubt) [Compound 402]
HBE Activity at 10 μM: ++ (++ is 30-60%)

SMILES: Cc1cccc(C)c1-c1cc2nc(n1)NS(=O)(=O)c1cccc(c1)C(=O)N(C1CC3(C1)CC(O)(Cc1ccccc1)C3)[C@H](CC(C)(C)C)CO2 (stereo in doubt) [Compound 431]
pEC50: > 6.00
HBE Max Activity: +++ (+++ is >60%)

SMILES: Cc1cccc(CO)c1-c1cc2nc(n1)NS(=O)(=O)c1cccc(c1)C(=O)N(C1CC3(CC(NC(=O)OC(C)C)C3)C1)[C@H](CC(C)(C)C)CO2 (stereo partly shown) [Compound 209]
HBE Activity at 10 μM: ++ (++ is 30-60%)

Next, values leading:

pEC50: 4.52 to 5.52
HBE Max Activity: +++ (+++ is >60%)
SMILES: Cc1cccc(C)c1-c1cc2nc(n1)NS(=O)(=O)c1cccc(c1)C(=O)N(c1cn[nH]c1)[C@H](CC(C)C)CO2 [Compound 99, (11R)-6-(2,6-Dimethylphenyl)-11-isobutyl-2,2-dioxo-12-(1H-pyrazol-4-yl)-9-oxa-2λ^6-thia-3,5,12,19-tetrazatricyclo[12.3.1.14,8]nonadeca-1(18),4(19),5,7,14,16-hexaen-13-one]

pEC50: > 6.00
HBE Max Activity: +++ (+++ is >60%)
SMILES: Cc1cccc(C)c1-c1cc2nc(n1)NS(=O)(=O)c1cccc(c1)C(=O)N([C@H]1C[C@@](O)(Cc3ccccc3)C1)[C@H](CC(C)(C)C)CO2 (single isomer, unassigned) [Compound 140]

pEC50: > 6.00
HBE Max Activity: +++ (+++ is >60%)
SMILES: Cc1cccc(C)c1-c1cc2nc(n1)NS(=O)(=O)c1cccc(c1)C(=O)N(C1CC3(CCCN3C(=O)CO)C1)[C@H](CC(C)(C)C)CO2 (stereo in doubt) [Compound 206]

pEC50: > 6.00
HBE Max Activity: +++ (+++ is >60%)
SMILES: Cc1cccc(C)c1-c1cc2nc(n1)NS(=O)(=O)c1cccc(c1)C(=O)N(c1cnn(CC(=O)OC(C)(C)C)c1)[C@H](CC(C)C)CO2 [Compound 429]

pEC50: > 6.00
HBE Max Activity: +++ (+++ is >60%)
SMILES: Cc1cccc(C)c1-c1cc2nc(n1)NS(=O)(=O)c1cccc(c1)C(=O)N(c1cn[nH]c1)[C@H](CC(C)(C)C)CO2 [Compound 185, (11R)-6-(2,6-Dimethylphenyl)-11-(2,2-dimethylpropyl)-2,2-dioxo-12-(1H-pyrazol-4-yl)-9-oxa-2λ^6-thia-3,5,12,19-tetrazatricyclo[12.3.1.14,8]nonadeca-1(18),4(19),5,7,14,16-hexaen-13-one]

pEC50: > 6.00
HBE Max Activity: +++ (+++ is >60%)
SMILES: Cc1cccc(C)c1-c1cc2nc(n1)NS(=O)(=O)c1cccc(c1)C(=O)N(C1CC3(CCCN3C(=O)CO)C1)[C@H](CC(C)(C)C)CO2 (stereo in doubt) [Compound 205]
